The target of assay [1] is T1, recombinant human ALK5 (TGF-βR1) protein (Homo sapiens, UniProt P36897).
T1 construct: purchased Life Technologies PR9075A
T1 sequence (P36897 34-503): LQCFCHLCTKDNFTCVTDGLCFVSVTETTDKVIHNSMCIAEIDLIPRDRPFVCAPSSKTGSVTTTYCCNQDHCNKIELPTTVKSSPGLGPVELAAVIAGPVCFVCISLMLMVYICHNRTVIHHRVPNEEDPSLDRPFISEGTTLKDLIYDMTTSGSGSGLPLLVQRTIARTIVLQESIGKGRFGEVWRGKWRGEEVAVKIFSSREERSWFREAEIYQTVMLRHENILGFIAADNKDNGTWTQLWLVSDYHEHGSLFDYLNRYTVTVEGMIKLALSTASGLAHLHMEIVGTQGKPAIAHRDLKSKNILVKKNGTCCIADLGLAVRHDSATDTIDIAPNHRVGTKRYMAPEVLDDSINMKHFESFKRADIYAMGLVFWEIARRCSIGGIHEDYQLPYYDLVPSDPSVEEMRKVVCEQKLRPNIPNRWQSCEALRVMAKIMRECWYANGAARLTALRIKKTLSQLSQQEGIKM
In words: Biochemical ALK5 (TGF-βR1) assay to measure pKi (LANCE Ultra ULight kinase assay). Conditions: apparent pKi from pIC50 by Cheng-Prusoff, read-out: ALK5 pKi (converted). The essentials: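 After a 60 min room-temperature preincubation of ALK5 with compound, phosphorylation proceeds 60 min at 37 °C on ATP addition (125 μM as 5× stock). Detection: Eu-labelled phospho-Thr1342 Topo IIα antibody in EDTA buffer, pH 7.0; emission 665 nm.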

Assay [2] has as its system TGF-β-stimulated SMAD3 phosphorylation in BEAS-2B cells. Nature of the assay: Cellular ALK5 potency assay, inhibition of TGF-β stimulated pSMAD3 formation in BEAS-2B cells. The conditions noted are these: Homo sapiens; inhibition of TGF-β stimulated pSMAD3 formation, BEAS-2B cells; read-out: BEAS2B pIC50 (converted). The class given is cell-based. A digest of the protocol:
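Potency is reported as pIC50, derived from concentration-dependent reduction of pSMAD3 AlphaLISA signal against TGF-β-stimulated cells without compound. BEAS-2B cells received compound for 1 h before a 30-min stimulation with 10 ng/mL TGF-β.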

Where only a bound is given, the exact number is not on record here.

These results are taken from patent publication US11590116B2 (THERAVANCE BIOPHARMA R&D IP, LLC, priority 2019, dated 2023).

As to `Cc1cccc(-c2[nH]cnc2-c2ccc3ncc(-c4ccnc(C(=O)O)c4)cc3c2)n1` [Compound 1092, 4-[6-[5-(6-methyl-2-pyridyl)-1H-imidazol-4-yl]-3-quinolyl]pyridine-2-carboxylic acid], the Ki in assay [1] was < 0.0316 nM. Also, the IC50 in assay [2] was 1580 to 10000 nM.
`Cc1cccc(-c2n[nH]cc2-c2ccc3ncc(-c4cc5n(n4)CCNC5)cc3n2)n1` [Compound 83, 2-[3-(6-methyl-2-pyridyl)-1H-pyrazol-4-yl]-7-(4,5,6,7-tetrahydropyrazolo[1,5-a]pyrazin-2-yl)-1,5-naphthyridine]: in assay [1], the Ki was < 0.0316 nM. Also, the IC50 in assay [2] was < 20 nM.
The like results for `COC(=O)[C@H]1CNCCN1CCNc1cnc2ccc(-c3nc[nH]c3-c3cccc(C)n3)cc2c1` [Compound 723, methyl (2R)-1-[2-[[6-[5-(6-methyl-2-pyridyl)-1H-imidazol-4-yl]-3-quinolyl]amino]ethyl]piperazine-2-carboxylate] were, in that order, 0.0398 to 0.316 nM and 200 to 1260 nM.
Regarding `Cc1cccc(-c2[nH]cnc2-c2ccc3ncc(C(=O)OCC4CNC4)cc3c2)n1` [Compound 700, azetidin-3-ylmethyl 6-[5-(6-methyl-2-pyridyl)-1H-imidazol-4-yl]quinoline-3-carboxylate], the Ki in assay [1] was 0.0398 to 0.316 nM. In addition, in assay [2], the IC50 was 25.1 to 158 nM.
Regarding `Cc1cccc(-c2[nH]cnc2-c2ccc3ncc(N4CCNC(CC(=O)OC(C)C)C4)cc3c2)n1` (centres unmarked) [Compound 24, isopropyl 2-[4-[6-[5-(6-methyl-2-pyridyl)-1H-imidazol-4-yl]-3-quinolyl]piperazin-2-yl]acetate], the Ki in assay [1] was 0.0398 to 0.316 nM. Moreover, the IC50 in assay [2] is 25.1 to 158 nM.
Turning to `Cc1cccc(-c2n[nH]cc2-c2ccc3ncc(N4C[C@@H]5C[C@H]4CN5)cc3n2)n1` [Compound 220, 7-[(1S,4S)-2,5-diazabicyclo[2.2.1]heptan-2-yl]-2-[3-(6-methyl-2-pyridyl)-1H-pyrazol-4-yl]-1,5-naphthyridine], in assay [1], the Ki was 0.398 to 3.16 nM. Also, in assay [2], the IC50 was 25.1 to 158 nM.
The like results for `Cc1cccc(-c2n[nH]cc2-c2ccc3ncc(NC(=O)CCCN4CCN(C(C)C)CC4)cc3n2)n1` [Compound 99, 4-(4-isopropylpiperazin-1-yl)-N-[6-[3-(6-methyl-2-pyridyl)-1H-pyrazol-4-yl]-1,5-naphthyridin-3-yl]butanamide] were, in that order, 0.0398 to 0.316 nM and 25.1 to 158 nM.
In the case of `Cc1cccc(-c2[nH]cnc2-c2ccc3ncc(-c4cn[nH]c4)cc3c2)n1` [Compound 430, 6-[5-(6-methyl-2-pyridyl)-1H-imidazol-4-yl]-3-(1H-pyrazol-4-yl)quinoline], the Ki in assay [1] was < 0.0316 nM. In addition, the IC50 in assay [2] is < 20 nM.
The like results for `Cc1cccc(-c2n[nH]cc2-c2ccc3ncc(N[C@@]45C[C@@H]6C[C@@H](C[C@@](N)(C6)C4)C5)cc3n2)n1` [Compound 297, rac-(5S,7R)-N1-[6-[3-(6-methyl-2-pyridyl)-1H-pyrazol-4-yl]-1,5-naphthyridin-3-yl]adamantane-1,3-diamine] were, in that order, 3.98 to 31.6 nM and 200 to 1260 nM.
Consider `Cc1cccc(-c2[nH]cnc2-c2ccc3ncc(-c4ccc(C(=O)OC[C@H]5CCCCN5)cn4)cc3c2)n1` [Compound 1244, [(2R)-2-piperidyl]methyl 6-[6-[5-(6-methyl-2-pyridyl)-1H-imidazol-4-yl]-3-quinolyl]pyridine-3-carboxylate], for which the Ki in assay [1] was 0.0398 to 0.316 nM. In addition, the IC50 in assay [2] was 25.1 to 158 nM.
On to `Cc1cccc(-c2[nH]cnc2-c2ccc3ncc(-c4csc(C(=O)OCCN5CCC[C@@H](N)C5)c4)cc3c2)n1` [Compound 1178, 2-[(3R)-3-amino-1-piperidyl]ethyl 4-[6-[5-(6-methyl-2-pyridyl)-1H-imidazol-4-yl]-3-quinolyl]thiophene-2-carboxylate], for which the Ki in assay [1] is 0.0398 to 0.316 nM. Further, the IC50 in assay [2] is 25.1 to 158 nM.
In the case of `Cc1cccc(-c2[nH]cnc2-c2ccc3ncc(-c4cnn(CCN)c4)cc3c2)n1` [Compound 572, 2-[4-[6-[5-(6-methyl-2-pyridyl)-1H-imidazol-4-yl]-3-quinolyl]pyrazol-1-yl]ethanamine], in assay [1], the Ki was 0.0398 to 0.316 nM. Besides, the IC50 in assay [2] is 25.1 to 158 nM.
Regarding `Cc1cccc(-c2[nH]cnc2-c2ccc3ncc(-c4cccc(C(=O)O[C@@H]5CCN(C)C5)c4)cc3c2)n1` [Compound 608, [(3R)-1-methylpyrrolidin-3-yl] 3-[6-[5-(6-methyl-2-pyridyl)-1H-imidazol-4-yl]-3-quinolyl]benzoate], the Ki in assay [1] was 0.0398 to 0.316 nM. Also, in assay [2], the IC50 was 25.1 to 158 nM.
As to `Cc1cccc(-c2[nH]cnc2-c2ccc3ncc(C(=O)OCCN4CCC5NCCC5C4)cc3c2)n1` (centres unmarked) [Compound 1065, 2-(1,2,3,3a,4,6,7,7a-octahydropyrrolo[3,2-c]pyridin-5-yl)ethyl 6-[5-(6-methyl-2-pyridyl)-1H-imidazol-4-yl]quinoline-3-carboxylate], in assay [1], the Ki is 0.0398 to 0.316 nM. Also, the IC50 in assay [2] was 200 to 1260 nM.
The like results for `Cc1cccc(-c2[nH]cnc2-c2ccc3ncc(N4CCC(NC(=O)C5CCNCC5)CC4)cc3c2)n1` [Compound 583, N-[1-[6-[5-(6-methyl-2-pyridyl)-1H-imidazol-4-yl]-3-quinolyl]-4-piperidyl]piperidine-4-carboxamide] were, in that order, 0.0398 to 0.316 nM and 1580 to 10000 nM.
For `Cc1cccc(-c2[nH]ncc2-c2ccc3nccc(C(=O)OCCC4CNC4)c3c2)n1` [Compound 1136, 2-(azetidin-3-yl)ethyl 6-[5-(6-methyl-2-pyridyl)-1H-pyrazol-4-yl]quinoline-4-carboxylate], the Ki in assay [1] was 0.398 to 3.16 nM. The IC50 in assay [2] was 200 to 1260 nM.
On to `Cc1nc(-c2n[nH]cc2-c2ccc3ncc(NCCN4CCCC4(C)C)cc3n2)ccc1F` [Compound 526, N-(2-(2,2-dimethylpyrrolidin-1-yl)ethyl)-6-(3-(5-fluoro-6-methylpyridin-2-yl)-1H-pyrazol-4-yl)-1,5-naphthyridin-3-amine], for which the Ki in assay [1] was < 0.0316 nM. Moreover, the IC50 in assay [2] was 25.1 to 158 nM.
Turning to `Cc1cccc(-c2[nH]cnc2-c2ccc3ncc(-c4cc(C(=O)O)ccn4)cc3c2)n1` [Compound 1137, 2-[6-[5-(6-methyl-2-pyridyl)-1H-imidazol-4-yl]-3-quinolyl]pyridine-4-carboxylic acid], the Ki in assay [1] is 0.0398 to 0.316 nM. Also, in assay [2], the IC50 is 1580 to 10000 nM.
Turning to `CCOC(=O)c1ccnc2ccc(-c3c(-c4cccc(C)n4)n[nH]c3-c3cccc(F)c3)nc12` [Compound 858, ethyl 6-[5-(3-fluorophenyl)-3-(6-methyl-2-pyridyl)-1H-pyrazol-4-yl]-1,5-naphthyridine-4-carboxylate], the Ki in assay [1] was 3.98 to 31.6 nM. Further, in assay [2], the IC50 is 200 to 1260 nM.
With `Cc1cccc(-c2[nH]cnc2-c2ccc3ncc(NCCN4CCC5(CC4)CNC5)cc3c2)n1` [Compound 404, N-[2-(2,7-diazaspiro[3.5]nonan-7-yl)ethyl]-6-[5-(6-methyl-2-pyridyl)-1H-imidazol-4-yl]quinolin-3-amine], in assay [1], the Ki was 0.0398 to 0.316 nM. Besides, the IC50 in assay [2] is 200 to 1260 nM.
Taken in the same sequence, the figures for `Cc1cccc(-c2[nH]cnc2-c2ccc3ncc(-c4ccc(C(=O)O[C@@H]5CCNC5)cn4)cc3c2)n1` [Compound 1111, [(3R)-pyrrolidin-3-yl] 6-[6-[5-(6-methyl-2-pyridyl)-1H-imidazol-4-yl]-3-quinolyl]pyridine-3-carboxylate] were < 0.0316 nM and 25.1 to 158 nM.
On to `CCOC(=O)C1CC=C(c2cnc3ccc(-c4nc[nH]c4-c4cccc(C)n4)cc3c2)CC1` (centres unmarked) [Compound 167, ethyl 4-[6-[5-(6-methyl-2-pyridyl)-1H-imidazol-4-yl]-3-quinolyl]cyclohex-3-ene-1-carboxylate], for which, in assay [1], the Ki is 0.0398 to 0.316 nM. Further, the IC50 in assay [2] was 25.1 to 158 nM.
Taken in the same sequence, the figures for `Cc1cccc(-c2[nH]cnc2-c2ccc3ncc(-c4ncc(C(=O)O[C@H]5CCNC5)s4)cc3c2)n1` [Compound 1160, [(3S)-pyrrolidin-3-yl] 2-[6-[5-(6-methyl-2-pyridyl)-1H-imidazol-4-yl]-3-quinolyl]thiazole-5-carboxylate] were < 0.0316 nM and < 20 nM.
Consider `Cc1cccc(-c2n[nH]cc2-c2ccc3nccc(CN(C)CCN4CCOCC4)c3n2)n1` [Compound 828, N-methyl-N-[[6-[3-(6-methyl-2-pyridyl)-1H-pyrazol-4-yl]-1,5-naphthyridin-4-yl]methyl]-2-morpholino-ethanamine], for which the Ki in assay [1] was 3.98 to 31.6 nM. Moreover, the IC50 in assay [2] was 25.1 to 158 nM.
Consider `Cc1cccc(-c2[nH]cnc2-c2ccc3ncc(C4=CCC(N(C)C)CC4)cc3n2)n1` (centres unmarked) [Compound 452, N,N-dimethyl-4-[6-[5-(6-methyl-2-pyridyl)-1H-imidazol-4-yl]-1,5-naphthyridin-3-yl]cyclohex-3-en-1-amine], for which, in assay [1], the Ki was < 0.0316 nM. For the same compound, the IC50 in assay [2] is 25.1 to 158 nM.
